Test results published in article PMC5152921, “Evolutionary and Functional Diversification of the Vitamin D Receptor-Lithocholic Acid Partnership” (PLoS ONE, 2016).

Tests used:
Format in all cases: cell-based
Conditions in all cases: 100 μM LCA
[1] = biological target: T1, Medaka VDRβ (Oryzias latipes, UniProt B2CCA1); assay: Transient transactivation assay (XREM-Luc, HepG2)
T1 sequence (B2CCA1 1-425): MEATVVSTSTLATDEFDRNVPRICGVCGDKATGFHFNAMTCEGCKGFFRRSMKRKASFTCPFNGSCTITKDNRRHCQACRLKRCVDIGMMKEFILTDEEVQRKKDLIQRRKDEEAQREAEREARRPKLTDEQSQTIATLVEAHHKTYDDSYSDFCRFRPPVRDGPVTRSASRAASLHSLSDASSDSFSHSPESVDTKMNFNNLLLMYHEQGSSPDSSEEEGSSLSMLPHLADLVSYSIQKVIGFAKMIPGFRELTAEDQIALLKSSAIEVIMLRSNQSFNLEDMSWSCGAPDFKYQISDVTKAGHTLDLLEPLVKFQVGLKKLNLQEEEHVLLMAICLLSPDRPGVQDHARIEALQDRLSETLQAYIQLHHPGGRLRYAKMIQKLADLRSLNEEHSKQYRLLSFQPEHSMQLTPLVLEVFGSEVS
T1 sequence (P19793 1-462 partner): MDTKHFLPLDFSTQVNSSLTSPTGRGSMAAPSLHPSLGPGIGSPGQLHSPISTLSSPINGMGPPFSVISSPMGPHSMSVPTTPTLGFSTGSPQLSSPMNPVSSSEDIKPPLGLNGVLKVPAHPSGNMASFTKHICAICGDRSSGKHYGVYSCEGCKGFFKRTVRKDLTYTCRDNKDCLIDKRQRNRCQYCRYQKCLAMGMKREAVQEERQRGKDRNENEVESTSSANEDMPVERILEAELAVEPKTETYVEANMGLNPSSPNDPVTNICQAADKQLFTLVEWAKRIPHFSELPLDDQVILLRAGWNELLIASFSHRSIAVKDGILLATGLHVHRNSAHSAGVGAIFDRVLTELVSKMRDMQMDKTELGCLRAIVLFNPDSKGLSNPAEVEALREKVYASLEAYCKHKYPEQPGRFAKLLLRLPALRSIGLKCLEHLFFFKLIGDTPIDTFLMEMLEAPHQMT
Procedure: (§1) HepG2 cells (American Type Culture Collection #HB-8065) were cultured in T75 flasks with vented caps (Corning Life Sciences, Corning, NY) using Minimum Essential Medium (MEM) with phenol red supplemented with 10% fetal bovine serum, 1 mM sodium pyruvate, and 1X MEM non-essential amino acids. Cells were maintained following standard protocols in a 5% CO2 incubator set at 37°C, and split when 80–90% confluent.
(§2) For the transient transactivation assays, HepG2 cells were seeded in 96-well tissue culture plates at a density of 2.5x10^4 cells per well in complete phenol red-free MEM, and allowed to recover overnight. Transfections were performed the following day using Lipofectamine 2000 (Life Technologies, Grand Island, NY) as described previously. For functional comparisons, 89.7 ng/well of full-length pSG5-VDR was co-transfected with 19.2 ng/well human XREM-Luc reporter and 4.5 ng/well of pRL-CMV as an internal luciferase control. Coregulator studies included the addition of 18.3 ng/well of human coregulators (pCDNA-RXRWT, pCDNA-RXRAF2, pSG5-SRC1, pSG5-GRIP1 or pSG5-ACTR) where indicated. […] Controls include 120 nM 1,25D3 as a positive control, and ethanol as a vehicle control. Twenty-four hours post-exposure cells were tested for luciferase activity using the Dual-Glo Luciferase Assay System (Promega Corporation, Madison, WI) according to the manufacturer’s protocols. Luciferase data were first normalized to the pRL-CMV internal luciferase control. LCA-mediated VDR transactivation (fold activation) was calculated as the ratio of the VDR luciferase response relative to the empty vector control. To calculate the impact of coregulators on VDR transactivation, VDR response in the presence of coregulators was normalized to VDR alone. All experiments were repeated 3 times and conducted as groups of 4 replicate wells. VDR response in the absence of coregulators was analyzed using a 1-way ANOVA followed by Dunnett’s multiple comparisons test. To examine the effects of different coregulators on VDR activation, data were analyzed using a 2-way ANOVA followed by Bonferroni’s multiple comparisons test in GraphPad Prism (GraphPad Inc, San Diego, CA).

[2] = biological target: T2, Zebrafish VDRα (Danio rerio, UniProt Q9PTN2); assay: Transient transactivation assay (XREM-Luc, HepG2)
T2 construct: 89.7 ng/well of full-length pSG5-VDR was co-transfected; expressed in transfected cells; host or cells: HepG2
T2 sequence (Q9PTN2 1-453): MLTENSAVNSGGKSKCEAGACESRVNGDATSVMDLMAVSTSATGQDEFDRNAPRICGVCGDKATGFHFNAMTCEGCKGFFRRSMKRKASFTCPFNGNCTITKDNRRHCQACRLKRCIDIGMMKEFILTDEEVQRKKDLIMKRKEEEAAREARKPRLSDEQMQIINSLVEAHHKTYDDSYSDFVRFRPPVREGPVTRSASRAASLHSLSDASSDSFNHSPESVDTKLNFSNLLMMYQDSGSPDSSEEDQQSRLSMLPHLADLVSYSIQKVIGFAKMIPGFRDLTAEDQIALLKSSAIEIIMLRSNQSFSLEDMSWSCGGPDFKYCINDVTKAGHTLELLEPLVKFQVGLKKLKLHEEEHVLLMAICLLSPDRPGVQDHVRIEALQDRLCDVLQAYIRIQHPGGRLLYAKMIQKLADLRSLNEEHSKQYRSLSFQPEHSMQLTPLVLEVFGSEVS
Procedure: as §1, §2

[3] = biological target: T2, Zebrafish VDRα; assay: Mammalian 2-hybrid assay (VDR-coregulator interaction, HepG2)
Text: Prey constructs included full-length VDRs fused to the herpes simplex VP16 activation domain (pVP16-VDR). Bait constructs consisted of either full-length wild-type human RXR (pM-RXRWT), a truncated human RXR mutant (pM-RXRAF2), or the defined NR box of each member of the SRC/p160 family (pM-SRC1_241-386, pM-GRIP1_479-767, or pM-ACTR392-1005) fused to the yeast Gal4 DNA-binding domain. Reporters included the Gal4 luciferase reporter (5xGal4-TATA-Luc) and pRL-CMV as an internal luciferase control.
HepG2 cells were seeded into 96-well tissue culture plates as described above and transfected with Lipofectamine 2000 the following day. Each well received 33.6 ng pVP16-VDR, 33.6 ng pM-coregulator (where indicated), 126.6 ng 5XGal4-TATA-Luc, and 3 ng pRL-CMV. […] Positive controls were treated with 1,25D3 and vehicle controls were treated with ethanol. Luciferase activity was measured 24 hours post-exposure using the Dual-Glo Luciferase Assay System described above. Raw luciferase data were normalized to the pRL-CMV luciferase control. VDR-coregulator response was normalized to the pVP16-VDR in the absence of bait constructs. Results were analyzed using a two-way ANOVA followed by Bonferroni’s multiple comparisons test in Prism (GraphPad Inc, San Diego, CA). All experiments were replicated 3 times and conducted as groups of 4 replicate wells.

[4] = co-transfected human RXRWT, vs VDR alone
[5] = compared to either coregulator individually

SMILES: C[C@H](CCC(=O)O)[C@H]1CC[C@H]2[C@@H]3CC[C@@H]4C[C@H](O)CC[C@]4(C)[C@H]3CC[C@]12C [LCA, 5β-cholanic acid-3α-ol]
- Effect of exogenous human RXRWT on VDR transactivation [1, 4]: significantly enhanced transactivation
- Effect of RXRWT+SRC1 or RXRWT+GRIP1 on VDR transactivation [1, 5]: significantly enhanced VDR transactivation
- Effect of exogenous human RXRWT on VDR transactivation [2, 4]: significantly enhanced transactivation
- Effect of RXRWT+SRC1 or RXRWT+GRIP1 on VDR transactivation [2, 5]: significantly enhanced VDR transactivation
- VDR-SRC1 interaction ([3]; absence of cotransfected RXRWT): successfully recruited SRC1
- VDR-RXRWT interaction (heterodimerization) ([3]; bait human RXRWT): Robust and significant VDR-RXRWT interactions
- VDR-SRC1 interaction ([3]; cotransfection of RXRWT): strong VDR-SRC1 interactions
